How the values were obtained:
[1] = target: T1, Gamma-aminobutyric acid receptor subunit alpha-1 (Homo sapiens) (UniProt P14867); test: Selectivity interaction (CEREP panel (LeadProfilingScreen Eurofins, panel of receptors, ion channels, and other enzymes)) EUB0000191c GABRA1; settings: at 10 µM
T1 sequence (whole entry): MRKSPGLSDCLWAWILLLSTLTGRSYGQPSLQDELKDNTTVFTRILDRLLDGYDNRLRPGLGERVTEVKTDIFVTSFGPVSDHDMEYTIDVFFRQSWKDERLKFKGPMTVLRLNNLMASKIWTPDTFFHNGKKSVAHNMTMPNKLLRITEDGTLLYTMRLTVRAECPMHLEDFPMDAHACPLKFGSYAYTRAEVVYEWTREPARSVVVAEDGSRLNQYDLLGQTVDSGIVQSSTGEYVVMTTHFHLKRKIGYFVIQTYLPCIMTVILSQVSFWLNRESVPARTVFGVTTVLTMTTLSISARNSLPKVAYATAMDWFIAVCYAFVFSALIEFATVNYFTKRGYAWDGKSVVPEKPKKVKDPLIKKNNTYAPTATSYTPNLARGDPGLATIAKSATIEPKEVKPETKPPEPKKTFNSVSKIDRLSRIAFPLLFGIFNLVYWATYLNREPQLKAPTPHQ

[2] = target: T2, Chromatin remodeling regulator CECR2 (Homo sapiens, UniProt Q9BXF3); test: Selectivity interaction (Bromodomain panel (DSF assay)) EUB0000191c CECR2
[3] = target: T3, Bromodomain-containing protein 7 (Homo sapiens) (UniProt Q9NPI1); test: Selectivity interaction (Bromodomain panel (DSF assay)) EUB0000191c BRD7
T3 sequence (whole entry): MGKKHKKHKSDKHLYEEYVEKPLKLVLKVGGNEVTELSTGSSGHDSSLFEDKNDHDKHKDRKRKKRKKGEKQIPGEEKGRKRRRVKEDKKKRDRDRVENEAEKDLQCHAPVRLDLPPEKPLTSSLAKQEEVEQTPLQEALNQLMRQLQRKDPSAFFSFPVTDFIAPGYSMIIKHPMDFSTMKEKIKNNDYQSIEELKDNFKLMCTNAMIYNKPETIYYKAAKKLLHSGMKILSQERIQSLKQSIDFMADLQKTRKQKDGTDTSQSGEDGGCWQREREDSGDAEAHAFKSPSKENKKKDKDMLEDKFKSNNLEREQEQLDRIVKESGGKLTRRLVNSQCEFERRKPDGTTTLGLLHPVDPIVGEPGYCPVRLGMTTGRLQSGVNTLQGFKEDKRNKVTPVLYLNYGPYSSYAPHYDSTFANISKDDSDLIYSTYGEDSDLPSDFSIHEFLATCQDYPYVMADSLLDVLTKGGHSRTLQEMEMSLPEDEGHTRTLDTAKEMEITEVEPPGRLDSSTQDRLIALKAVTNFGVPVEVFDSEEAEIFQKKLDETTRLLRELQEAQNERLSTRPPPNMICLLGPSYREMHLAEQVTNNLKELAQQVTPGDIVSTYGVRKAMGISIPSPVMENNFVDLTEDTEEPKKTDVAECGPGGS

[4] = target: Histone acetyltransferase p300 (Homo sapiens) (UniProt Q09472); test: Selectivity interaction (Bromodomain panel (DSF assay)) EUB0000191c EP300
[5] = target: Transcription initiation factor TFIID subunit 1-like (Homo sapiens) (UniProt Q8IZX4); test: Selectivity interaction (BROMOscan (DiscoverX)) EUB0000191c TAF1L; settings: at 100 nM
Transcription initiation factor TFIID subunit 1-like (Homo sapiens), sequence (Q8IZX4 whole entry): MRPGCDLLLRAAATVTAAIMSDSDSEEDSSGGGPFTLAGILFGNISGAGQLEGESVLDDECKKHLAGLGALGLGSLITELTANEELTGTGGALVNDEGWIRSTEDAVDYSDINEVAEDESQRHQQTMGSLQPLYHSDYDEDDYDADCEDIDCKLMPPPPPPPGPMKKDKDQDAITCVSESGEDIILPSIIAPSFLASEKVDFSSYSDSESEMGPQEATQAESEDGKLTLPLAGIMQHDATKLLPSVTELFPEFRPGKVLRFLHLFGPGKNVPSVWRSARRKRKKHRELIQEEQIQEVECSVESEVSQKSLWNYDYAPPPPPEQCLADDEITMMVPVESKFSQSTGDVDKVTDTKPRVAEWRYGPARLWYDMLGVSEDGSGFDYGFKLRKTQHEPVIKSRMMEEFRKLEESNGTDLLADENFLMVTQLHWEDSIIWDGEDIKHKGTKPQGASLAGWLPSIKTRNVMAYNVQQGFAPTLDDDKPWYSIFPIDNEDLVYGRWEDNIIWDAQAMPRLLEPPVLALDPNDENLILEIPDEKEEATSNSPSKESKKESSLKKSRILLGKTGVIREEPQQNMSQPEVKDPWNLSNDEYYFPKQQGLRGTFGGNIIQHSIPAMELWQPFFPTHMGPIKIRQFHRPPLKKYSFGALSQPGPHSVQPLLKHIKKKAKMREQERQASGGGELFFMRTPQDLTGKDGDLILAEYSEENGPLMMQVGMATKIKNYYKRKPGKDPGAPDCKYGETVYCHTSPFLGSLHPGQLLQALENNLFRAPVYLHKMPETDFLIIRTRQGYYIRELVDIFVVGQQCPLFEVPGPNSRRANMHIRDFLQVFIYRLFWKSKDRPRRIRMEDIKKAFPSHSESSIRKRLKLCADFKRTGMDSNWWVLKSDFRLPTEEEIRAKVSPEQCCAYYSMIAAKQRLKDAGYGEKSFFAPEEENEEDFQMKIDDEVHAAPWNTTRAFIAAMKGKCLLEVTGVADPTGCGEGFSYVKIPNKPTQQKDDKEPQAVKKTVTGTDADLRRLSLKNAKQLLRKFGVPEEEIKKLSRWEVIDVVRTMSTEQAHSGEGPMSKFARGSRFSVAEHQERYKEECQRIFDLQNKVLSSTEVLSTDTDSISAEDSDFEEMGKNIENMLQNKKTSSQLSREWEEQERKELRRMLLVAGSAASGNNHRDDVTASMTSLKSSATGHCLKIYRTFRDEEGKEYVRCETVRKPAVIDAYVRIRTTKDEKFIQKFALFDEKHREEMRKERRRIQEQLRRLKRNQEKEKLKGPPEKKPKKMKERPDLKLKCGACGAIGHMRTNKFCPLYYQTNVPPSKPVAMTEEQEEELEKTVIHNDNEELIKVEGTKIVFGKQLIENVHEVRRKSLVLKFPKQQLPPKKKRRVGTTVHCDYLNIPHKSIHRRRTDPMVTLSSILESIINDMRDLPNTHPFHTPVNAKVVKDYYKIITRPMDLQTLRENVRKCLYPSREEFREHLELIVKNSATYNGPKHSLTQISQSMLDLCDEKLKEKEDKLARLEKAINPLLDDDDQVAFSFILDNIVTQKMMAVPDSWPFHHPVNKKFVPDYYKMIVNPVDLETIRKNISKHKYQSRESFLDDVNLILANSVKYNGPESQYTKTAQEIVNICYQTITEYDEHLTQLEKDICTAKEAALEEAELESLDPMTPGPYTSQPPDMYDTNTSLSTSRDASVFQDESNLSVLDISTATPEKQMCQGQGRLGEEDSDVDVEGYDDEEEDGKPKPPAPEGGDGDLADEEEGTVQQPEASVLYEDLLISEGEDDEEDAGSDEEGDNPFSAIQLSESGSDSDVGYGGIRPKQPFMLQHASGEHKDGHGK

[6] = target: T2, Chromatin remodeling regulator CECR2; test: Selectivity interaction (ITC) EUB0000191c CECR2
[7] = target: CREB-binding protein (Homo sapiens, UniProt Q92793); test: Selectivity interaction (BROMOscan (DiscoverX)) EUB0000191c CREBBP; settings: at 100 nM
[8] = target: T4, Bromodomain-containing protein 4 (Homo sapiens, UniProt O60885); test: (§1) Selectivity interaction (TR-FRET assay) EUB0000191c BRD4
[9] = target: cGMP-dependent 3',5'-cyclic phosphodiesterase (Homo sapiens) (UniProt O00408); test: Selectivity interaction (CEREP panel (LeadProfilingScreen Eurofins, panel of receptors, ion channels, and other enzymes)) EUB0000191c PDE2A; settings: at 10 µM
[10] = target: T4, Bromodomain-containing protein 4; test: as §1; remark: listed apart in the source
[11] = target: T5, Adenosine receptor A1 (Homo sapiens) (UniProt P30542); test: Selectivity interaction (CEREP panel (LeadProfilingScreen Eurofins, panel of receptors, ion channels, and other enzymes)) EUB0000191c ADORA1; settings: at 10 µM
T5 sequence (whole entry): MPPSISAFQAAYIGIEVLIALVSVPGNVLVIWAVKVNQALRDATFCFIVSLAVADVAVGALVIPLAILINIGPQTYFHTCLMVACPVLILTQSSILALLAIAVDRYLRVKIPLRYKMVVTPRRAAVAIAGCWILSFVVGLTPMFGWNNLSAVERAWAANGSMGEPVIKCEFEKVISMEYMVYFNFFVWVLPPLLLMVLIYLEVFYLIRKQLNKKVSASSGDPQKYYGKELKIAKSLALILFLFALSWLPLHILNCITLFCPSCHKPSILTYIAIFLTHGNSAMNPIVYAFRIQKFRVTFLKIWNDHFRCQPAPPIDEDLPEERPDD

[12] = target: cGMP-specific 3',5'-cyclic phosphodiesterase (Homo sapiens) (UniProt O76074); test: Selectivity interaction (CEREP panel (LeadProfilingScreen Eurofins, panel of receptors, ion channels, and other enzymes)) EUB0000191c PDE5A; settings: at 10 µM
[13] = target: Tyrosine-protein kinase Lyn (Homo sapiens, UniProt P07948); test: Selectivity interaction (NanoBRET assay (HEK293T cells)) EUB0000703a LYN
Tyrosine-protein kinase Lyn, sequence (P07948 whole entry, the tested form may be a part): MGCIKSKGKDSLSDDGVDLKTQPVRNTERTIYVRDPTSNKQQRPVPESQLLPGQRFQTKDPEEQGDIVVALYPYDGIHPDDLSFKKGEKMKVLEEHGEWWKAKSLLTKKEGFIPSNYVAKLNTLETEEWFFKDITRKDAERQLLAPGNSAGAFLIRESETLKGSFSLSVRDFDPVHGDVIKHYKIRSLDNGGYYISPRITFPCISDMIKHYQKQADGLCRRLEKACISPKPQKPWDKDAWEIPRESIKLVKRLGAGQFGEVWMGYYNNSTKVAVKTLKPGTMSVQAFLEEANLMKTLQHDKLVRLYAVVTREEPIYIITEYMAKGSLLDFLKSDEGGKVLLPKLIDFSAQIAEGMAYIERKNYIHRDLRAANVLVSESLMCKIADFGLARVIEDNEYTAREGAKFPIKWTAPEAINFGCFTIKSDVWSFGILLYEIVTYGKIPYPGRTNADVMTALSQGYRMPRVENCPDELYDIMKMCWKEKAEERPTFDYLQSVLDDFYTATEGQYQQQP

[14] = target: Epithelial discoidin domain-containing receptor 1 (Homo sapiens, UniProt Q08345); test: Selectivity interaction (KinomeScan (DiscoverX)) EUB0000703a DDR1; settings: at 1 µM
[15] = target: D(2) dopamine receptor (Homo sapiens, UniProt P14416); test: Selectivity interaction (GPCR panel (PDSP screen)) EUB0000703a DRD2
D(2) dopamine receptor, sequence (P14416 whole entry): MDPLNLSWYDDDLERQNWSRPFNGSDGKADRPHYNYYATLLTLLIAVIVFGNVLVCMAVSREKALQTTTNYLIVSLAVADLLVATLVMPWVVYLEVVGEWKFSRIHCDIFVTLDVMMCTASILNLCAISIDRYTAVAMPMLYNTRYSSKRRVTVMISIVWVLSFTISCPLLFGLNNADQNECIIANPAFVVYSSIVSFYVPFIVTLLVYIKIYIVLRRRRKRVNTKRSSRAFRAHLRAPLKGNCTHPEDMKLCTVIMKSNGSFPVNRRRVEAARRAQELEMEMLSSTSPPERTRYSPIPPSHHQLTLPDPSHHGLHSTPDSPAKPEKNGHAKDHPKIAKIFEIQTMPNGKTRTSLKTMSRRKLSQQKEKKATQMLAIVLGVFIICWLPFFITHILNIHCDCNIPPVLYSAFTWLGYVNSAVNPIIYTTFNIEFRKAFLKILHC

[16] = target: T6, Gamma-aminobutyric acid receptor subunit alpha-1 (Homo sapiens, UniProt P14867); test: Selectivity interaction (GPCR panel (PDSP screen)) EUB0000703a GABRA1
T6 sequence (P14867 whole entry): T1 sequence (whole entry)

[17] = target: Phosphatidylinositol 4,5-bisphosphate 3-kinase catalytic subunit alpha isoform (Homo sapiens, UniProt P42336); test: Selectivity interaction (KinomeScan (DiscoverX)) EUB0000703a PIK3CA; settings: at 1 µM
[18] = target: Discoidin domain-containing receptor 2 (Homo sapiens) (UniProt Q16832); test: Selectivity interaction (KinomeScan (DiscoverX)) EUB0000703a DDR2; settings: at 1 µM
Discoidin domain-containing receptor 2 (Homo sapiens), sequence (Q16832 whole entry, the tested form may be a part): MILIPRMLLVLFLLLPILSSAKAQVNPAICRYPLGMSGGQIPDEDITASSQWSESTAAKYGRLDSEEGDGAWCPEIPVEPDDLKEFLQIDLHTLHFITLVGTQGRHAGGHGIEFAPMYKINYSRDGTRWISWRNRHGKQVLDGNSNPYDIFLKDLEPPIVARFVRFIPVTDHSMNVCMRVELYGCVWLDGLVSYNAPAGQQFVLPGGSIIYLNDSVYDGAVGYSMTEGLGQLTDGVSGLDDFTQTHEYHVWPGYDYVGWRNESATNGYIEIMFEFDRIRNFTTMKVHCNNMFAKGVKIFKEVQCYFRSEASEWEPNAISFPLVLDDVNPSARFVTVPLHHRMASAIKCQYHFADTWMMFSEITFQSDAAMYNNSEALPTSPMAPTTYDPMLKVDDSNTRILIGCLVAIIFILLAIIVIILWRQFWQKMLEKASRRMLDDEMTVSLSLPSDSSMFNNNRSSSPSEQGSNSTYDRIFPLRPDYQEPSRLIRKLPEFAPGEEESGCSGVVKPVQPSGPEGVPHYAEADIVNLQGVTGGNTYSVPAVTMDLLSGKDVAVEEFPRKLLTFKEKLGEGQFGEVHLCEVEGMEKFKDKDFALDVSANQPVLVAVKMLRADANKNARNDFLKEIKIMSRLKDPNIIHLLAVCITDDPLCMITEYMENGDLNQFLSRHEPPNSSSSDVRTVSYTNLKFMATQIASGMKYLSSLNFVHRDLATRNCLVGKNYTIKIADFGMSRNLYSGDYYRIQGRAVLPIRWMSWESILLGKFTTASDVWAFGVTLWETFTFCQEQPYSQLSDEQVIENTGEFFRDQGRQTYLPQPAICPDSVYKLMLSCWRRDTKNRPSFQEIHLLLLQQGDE

[19] = target: Kappa-type opioid receptor (Homo sapiens, UniProt P41145); test: Selectivity interaction (GPCR panel (PDSP screen)) EUB0000703a OPRK1
[20] = target: Sodium-dependent noradrenaline transporter (Homo sapiens, UniProt P23975); test: Selectivity interaction (GPCR panel (PDSP screen)) EUB0000703a SLC6A2
Sodium-dependent noradrenaline transporter, sequence (P23975 whole entry): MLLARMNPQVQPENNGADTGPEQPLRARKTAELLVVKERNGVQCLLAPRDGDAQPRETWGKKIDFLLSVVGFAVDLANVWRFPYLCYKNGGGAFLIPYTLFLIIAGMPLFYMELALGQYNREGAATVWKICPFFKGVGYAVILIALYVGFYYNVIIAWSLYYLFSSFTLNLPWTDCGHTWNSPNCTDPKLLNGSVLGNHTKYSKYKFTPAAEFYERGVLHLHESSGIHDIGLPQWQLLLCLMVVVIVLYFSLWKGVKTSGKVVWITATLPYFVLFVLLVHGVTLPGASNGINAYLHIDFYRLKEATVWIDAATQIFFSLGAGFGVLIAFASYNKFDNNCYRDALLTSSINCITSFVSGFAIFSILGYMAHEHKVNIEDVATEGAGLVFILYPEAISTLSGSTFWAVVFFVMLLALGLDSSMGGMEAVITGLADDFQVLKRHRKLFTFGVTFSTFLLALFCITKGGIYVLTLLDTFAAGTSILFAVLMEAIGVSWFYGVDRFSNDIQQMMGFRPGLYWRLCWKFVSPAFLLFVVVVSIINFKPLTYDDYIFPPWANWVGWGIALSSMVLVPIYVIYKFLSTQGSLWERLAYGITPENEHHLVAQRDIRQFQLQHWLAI

[21] = system: Serine/threonine-protein kinase B-raf (Homo sapiens), P15056 [V600E]; test: Selectivity interaction (KinomeScan (DiscoverX)) EUB0000703a BRAF; settings: at 1 µM
Serine/threonine-protein kinase B-raf (Homo sapiens), P15056 [V600E], sequence (P15056 whole entry V600E): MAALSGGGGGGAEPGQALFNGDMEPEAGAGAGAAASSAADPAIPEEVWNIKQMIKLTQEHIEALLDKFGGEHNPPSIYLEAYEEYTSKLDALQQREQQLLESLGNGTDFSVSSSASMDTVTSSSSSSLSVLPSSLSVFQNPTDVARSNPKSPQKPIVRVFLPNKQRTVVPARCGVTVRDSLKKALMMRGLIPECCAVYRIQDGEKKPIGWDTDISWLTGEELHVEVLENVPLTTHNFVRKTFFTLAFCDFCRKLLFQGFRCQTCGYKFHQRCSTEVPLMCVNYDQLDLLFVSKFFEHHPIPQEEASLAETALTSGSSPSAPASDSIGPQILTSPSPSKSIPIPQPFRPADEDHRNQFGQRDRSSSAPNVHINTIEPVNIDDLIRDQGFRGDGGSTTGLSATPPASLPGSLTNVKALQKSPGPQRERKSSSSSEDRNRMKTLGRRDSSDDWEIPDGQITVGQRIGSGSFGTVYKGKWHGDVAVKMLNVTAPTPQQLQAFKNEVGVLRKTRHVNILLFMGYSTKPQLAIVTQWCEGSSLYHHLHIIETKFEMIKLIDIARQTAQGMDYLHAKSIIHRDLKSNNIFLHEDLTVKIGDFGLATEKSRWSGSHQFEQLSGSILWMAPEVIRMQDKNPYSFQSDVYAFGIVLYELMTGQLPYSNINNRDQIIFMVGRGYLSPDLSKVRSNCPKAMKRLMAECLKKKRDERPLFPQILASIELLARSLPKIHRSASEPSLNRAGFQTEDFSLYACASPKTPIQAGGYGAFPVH

For `Cc1cc2c(cc1N1C(=O)c3cccc4c(CCCO)ccc(c34)C1=O)n(C)c(=O)n2C`, the % of control [1] was 23%, the dTm [2] was 3.5 K and the dTm [3] was 2.3 K. It also gave a dTm [4] of 3.5 K, a % of control [5] of 0.7% and a Kd [6] of 1.39 µM. It also gave a % of control [7] of 30%, an IC50 [8] of over 15 µM and a % of control [9] of 49%. The IC50 [10] was over 20 µM, the % of control [11] was 48% and the % of control [12] was 2%.

Work on `Cc1cc(NC(=O)c2cccc(S(F)(F)(F)(F)F)c2)cc(-n2ccn3nc(-c4cccnc4)cc23)c1` [BAY-309] yielded an IC50 [13] of 7 µM, a % of control [14] of 0% and a Ki [15] of over 10 µM. It also gave a Ki [16] of 10.9 µM, a % of control [17] of 23% and a % of control [18] of 18%. It also gave a Ki [19] of over 10 µM, a Ki [20] of over 10 µM and a % of control [21] of 24%.

Source: ChEMBL document CHEMBL5212743, “Selectivity Literature for EUbOPEN Chemogenomics Library wave 3” (2023)
